Test results from the NIST ThermoML archive (doi:10.1016/j.tca.2015.06.017).

Experiment: xn = mol fraction of the nth substance listed
Settings: Liquid, Vibrating tube method

CCCCCl [1-chlorobutane] + CCCCCCC
mass density [kg/m3]
Settings | 283.15 K | 293.15 K | 298.15 K
100 kPa, x2 = 0.0508 | 882.75 | 871.93 | 866.47
100 kPa, x2 = 0.0994 | 869.33 | 858.68 | 853.29
100 kPa, x2 = 0.2013 | 842.84 | 832.5 | 827.27
100 kPa, x2 = 0.3015 | 818.82 | 808.71 | 803.67
100 kPa, x2 = 0.4008 | 796.7 | 786.9 | 781.96
100 kPa, x2 = 0.5026 | 775.72 | 766.2 | 761.38
100 kPa, x2 = 0.6012 | 756.89 | 747.61 | 742.88
100 kPa, x2 = 0.7003 | 739.21 | 730.17 | 725.57
100 kPa, x2 = 0.7995 | 722.69 | 713.87 | 709.43
100 kPa, x2 = 0.9011 | 706.94 | 698.34 | 694
100 kPa, x2 = 0.9494 | 699.8 | 691.32 | 687.02
2000 kPa, x2 = 0.0508 | 884.62 | 873.92 | 868.56
2000 kPa, x2 = 0.0994 | 871.23 | 860.68 | 855.4
2000 kPa, x2 = 0.2013 | 844.73 | 834.49 | 829.39
2000 kPa, x2 = 0.3015 | 820.72 | 810.76 | 805.75
2000 kPa, x2 = 0.4008 | 798.63 | 788.97 | 784.08
2000 kPa, x2 = 0.5026 | 777.65 | 768.2 | 763.54
2000 kPa, x2 = 0.6012 | 758.81 | 749.57 | 745
2000 kPa, x2 = 0.7003 | 741.14 | 732.18 | 727.68
2000 kPa, x2 = 0.7995 | 724.62 | 715.87 | 711.52
2000 kPa, x2 = 0.9011 | 708.86 | 700.31 | 696.1
2000 kPa, x2 = 0.9494 | 701.72 | 693.28 | 689.1
5000 kPa, x2 = 0.0508 | 887.46 | 876.95 | 871.65
5000 kPa, x2 = 0.0994 | 874.03 | 863.68 | 858.46
5000 kPa, x2 = 0.2013 | 847.53 | 837.52 | 832.44
5000 kPa, x2 = 0.3015 | 823.49 | 813.71 | 808.8
5000 kPa, x2 = 0.4008 | 801.35 | 791.93 | 787.1
5000 kPa, x2 = 0.5026 | 780.38 | 771.16 | 766.44
5000 kPa, x2 = 0.6012 | 761.44 | 752.54 | 747.93
5000 kPa, x2 = 0.7003 | 743.76 | 735.08 | 730.59
5000 kPa, x2 = 0.7995 | 727.26 | 718.74 | 714.37
5000 kPa, x2 = 0.9011 | 711.45 | 703.17 | 698.9
5000 kPa, x2 = 0.9494 | 704.3 | 696.13 | 691.9
7000 kPa, x2 = 0.0508 | 889.28 | 878.92 | 873.68
7000 kPa, x2 = 0.0994 | 875.85 | 865.65 | 860.48
7000 kPa, x2 = 0.2013 | 849.37 | 839.47 | 834.46
7000 kPa, x2 = 0.3015 | 825.31 | 815.63 | 810.76
7000 kPa, x2 = 0.4008 | 803.16 | 793.83 | 789.09
7000 kPa, x2 = 0.5026 | 782.19 | 773.03 | 768.42
7000 kPa, x2 = 0.6012 | 763.28 | 754.35 | 749.89
7000 kPa, x2 = 0.7003 | 745.54 | 736.9 | 732.52
7000 kPa, x2 = 0.7995 | 729.04 | 720.57 | 716.31
7000 kPa, x2 = 0.9011 | 713.2 | 704.95 | 700.8
7000 kPa, x2 = 0.9494 | 706.05 | 697.9 | 693.79
10000 kPa, x2 = 0.0508 | 891.99 | 881.85 | 876.62
10000 kPa, x2 = 0.0994 | 878.55 | 868.56 | 863.41
10000 kPa, x2 = 0.2013 | 852.02 | 842.33 | 837.33
10000 kPa, x2 = 0.3015 | 827.93 | 818.52 | 813.6
10000 kPa, x2 = 0.4008 | 805.75 | 796.66 | 791.87
10000 kPa, x2 = 0.5026 | 784.72 | 775.83 | 771.16
10000 kPa, x2 = 0.6012 | 765.77 | 757.17 | 752.57
10000 kPa, x2 = 0.7003 | 748.04 | 739.62 | 735.16
10000 kPa, x2 = 0.7995 | 731.51 | 723.28 | 718.95
10000 kPa, x2 = 0.9011 | 715.65 | 707.66 | 703.38
10000 kPa, x2 = 0.9494 | 708.47 | 700.58 | 696.37
20000 kPa, x2 = 0.0508 | 900.53 | 890.77 | 885.92
20000 kPa, x2 = 0.0994 | 887.08 | 877.47 | 872.69
20000 kPa, x2 = 0.2013 | 860.48 | 851.18 | 846.51
20000 kPa, x2 = 0.3015 | 836.34 | 827.25 | 822.71
20000 kPa, x2 = 0.4008 | 814.1 | 805.35 | 800.83
20000 kPa, x2 = 0.5026 | 793.03 | 784.43 | 780.1
20000 kPa, x2 = 0.6012 | 773.97 | 765.68 | 761.37
20000 kPa, x2 = 0.7003 | 756.2 | 748.06 | 743.91
20000 kPa, x2 = 0.7995 | 739.54 | 731.66 | 727.56
20000 kPa, x2 = 0.9011 | 723.61 | 715.92 | 711.9
20000 kPa, x2 = 0.9494 | 716.4 | 708.79 | 704.84
30000 kPa, x2 = 0.0508 | 908.4 | 899 | 894.38
30000 kPa, x2 = 0.0994 | 894.89 | 885.66 | 881.09
30000 kPa, x2 = 0.2013 | 868.22 | 859.31 | 854.8
30000 kPa, x2 = 0.3015 | 843.95 | 835.33 | 830.93
30000 kPa, x2 = 0.4008 | 821.67 | 813.25 | 808.96
30000 kPa, x2 = 0.5026 | 800.5 | 792.34 | 788.14
30000 kPa, x2 = 0.6012 | 781.4 | 773.46 | 769.31
30000 kPa, x2 = 0.7003 | 763.51 | 755.75 | 751.75
30000 kPa, x2 = 0.7995 | 746.78 | 739.24 | 735.28
30000 kPa, x2 = 0.9011 | 730.75 | 723.44 | 719.55
30000 kPa, x2 = 0.9494 | 723.48 | 716.27 | 712.41
40000 kPa, x2 = 0.0508 | 915.72 | 906.7 | 902.26
40000 kPa, x2 = 0.0994 | 902.19 | 893.3 | 888.92
40000 kPa, x2 = 0.2013 | 875.41 | 866.83 | 862.54
40000 kPa, x2 = 0.3015 | 851.07 | 842.76 | 838.54
40000 kPa, x2 = 0.4008 | 828.73 | 820.58 | 816.49
40000 kPa, x2 = 0.5026 | 807.4 | 799.52 | 795.57
40000 kPa, x2 = 0.6012 | 788.26 | 780.6 | 776.69
40000 kPa, x2 = 0.7003 | 770.26 | 762.81 | 759
40000 kPa, x2 = 0.7995 | 753.48 | 746.17 | 742.45
40000 kPa, x2 = 0.9011 | 737.36 | 730.25 | 726.58
40000 kPa, x2 = 0.9494 | 730.05 | 723.03 | 719.41
50000 kPa, x2 = 0.0508 | 922.47 | 913.76 | 909.49
50000 kPa, x2 = 0.0994 | 908.9 | 900.34 | 896.12
50000 kPa, x2 = 0.2013 | 882.07 | 873.81 | 869.69
50000 kPa, x2 = 0.3015 | 857.66 | 849.63 | 845.59
50000 kPa, x2 = 0.4008 | 835.21 | 827.43 | 823.5
50000 kPa, x2 = 0.5026 | 813.85 | 806.3 | 802.4
50000 kPa, x2 = 0.6012 | 794.6 | 787.26 | 783.45
50000 kPa, x2 = 0.7003 | 776.55 | 769.39 | 765.7
50000 kPa, x2 = 0.7995 | 759.63 | 752.7 | 749.08
50000 kPa, x2 = 0.9011 | 743.44 | 736.68 | 733.13
50000 kPa, x2 = 0.9494 | 736.1 | 729.41 | 725.89
60000 kPa, x2 = 0.0508 | 928.92 | 920.42 | 916.33
60000 kPa, x2 = 0.0994 | 915.32 | 906.99 | 902.96
60000 kPa, x2 = 0.2013 | 888.42 | 880.39 | 876.46
60000 kPa, x2 = 0.3015 | 863.89 | 856.15 | 852.33
60000 kPa, x2 = 0.4008 | 841.39 | 833.88 | 830.1
60000 kPa, x2 = 0.5026 | 819.91 | 812.63 | 809.01
60000 kPa, x2 = 0.6012 | 800.58 | 793.52 | 790
60000 kPa, x2 = 0.7003 | 782.47 | 775.64 | 772.14
60000 kPa, x2 = 0.7995 | 765.51 | 758.87 | 755.42
60000 kPa, x2 = 0.9011 | 749.23 | 742.77 | 739.4
60000 kPa, x2 = 0.9494 | 741.85 | 735.46 | 732.12
65000 kPa, x2 = 0.0508 | 931.98 | 923.76 | 919.61
65000 kPa, x2 = 0.0994 | 918.36 | 910.28 | 906.21
65000 kPa, x2 = 0.2013 | 891.39 | 883.59 | 879.69
65000 kPa, x2 = 0.3015 | 866.87 | 859.28 | 855.51
65000 kPa, x2 = 0.4008 | 844.29 | 836.95 | 833.25
65000 kPa, x2 = 0.5026 | 822.81 | 815.67 | 812.1
65000 kPa, x2 = 0.6012 | 803.45 | 796.5 | 793.04
65000 kPa, x2 = 0.7003 | 785.25 | 778.5 | 775.16
65000 kPa, x2 = 0.7995 | 768.28 | 761.67 | 758.43
65000 kPa, x2 = 0.9011 | 751.95 | 745.52 | 742.37
65000 kPa, x2 = 0.9494 | 744.53 | 738.19 | 735.07
